Measurements published in ChEMBL document CHEMBL4823324, “Discovery of BMS-986318, a Potent Nonbile Acid FXR Agonist for the Treatment of Nonalcoholic Steatohepatitis” (ACS Med Chem Lett, 2021).

Key:
[1] = target: T1, Nuclear receptor ROR-gamma (Homo sapiens, UniProt P51449); assay: Antagonist activity at human RORgammaT co-expressed with Gal4-luciferase reporter in human Jurkat cells incubated for 18 hrs by Steady-Glo luciferase reporter based luminescence analysis; format: cell-based
T1 sequence (P51449 whole entry): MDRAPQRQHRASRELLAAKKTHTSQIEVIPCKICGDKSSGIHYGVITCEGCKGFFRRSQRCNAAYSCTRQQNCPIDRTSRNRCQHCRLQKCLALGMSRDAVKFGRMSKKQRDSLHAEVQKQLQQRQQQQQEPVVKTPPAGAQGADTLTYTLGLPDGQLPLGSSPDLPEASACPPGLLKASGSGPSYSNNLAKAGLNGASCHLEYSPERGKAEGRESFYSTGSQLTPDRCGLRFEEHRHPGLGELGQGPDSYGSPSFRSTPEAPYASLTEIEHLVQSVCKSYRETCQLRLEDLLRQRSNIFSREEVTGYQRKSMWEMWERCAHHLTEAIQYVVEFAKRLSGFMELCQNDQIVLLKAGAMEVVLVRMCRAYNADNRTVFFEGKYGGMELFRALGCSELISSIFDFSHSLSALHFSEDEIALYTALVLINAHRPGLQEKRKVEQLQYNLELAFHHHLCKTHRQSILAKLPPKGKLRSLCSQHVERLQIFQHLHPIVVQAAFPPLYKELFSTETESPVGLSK

[2] = target: T2, Nuclear receptor ROR-alpha (Homo sapiens, UniProt P35398); assay: Antagonist activity at human RORalpha (272 to 557 residues) co-expressed with Gal4-luciferase reporter in human Jurkat cells incubated for 18 hrs by Steady-Glo luciferase reporter based luminescence analysis; format: cell-based
T2 sequence (P35398 whole entry): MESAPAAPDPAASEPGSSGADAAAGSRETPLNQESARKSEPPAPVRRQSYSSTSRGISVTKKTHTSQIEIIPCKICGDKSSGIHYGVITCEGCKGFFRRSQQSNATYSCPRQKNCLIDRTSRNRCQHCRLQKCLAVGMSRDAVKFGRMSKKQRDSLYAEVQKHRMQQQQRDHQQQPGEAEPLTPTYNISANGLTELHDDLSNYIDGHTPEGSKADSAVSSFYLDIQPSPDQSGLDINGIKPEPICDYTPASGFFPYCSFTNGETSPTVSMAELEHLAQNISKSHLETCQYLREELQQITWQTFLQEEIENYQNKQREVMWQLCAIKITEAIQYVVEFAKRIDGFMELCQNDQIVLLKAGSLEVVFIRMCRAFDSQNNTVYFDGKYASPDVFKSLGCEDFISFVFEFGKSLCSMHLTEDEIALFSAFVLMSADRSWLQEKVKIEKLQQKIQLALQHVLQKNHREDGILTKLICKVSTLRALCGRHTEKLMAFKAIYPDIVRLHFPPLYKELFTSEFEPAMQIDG

[3] = Cmax in C57B6 mouse at 2 mg/kg, po administered as suspension; format: ADME, organism-based; design: route oral, dose 2 mg/kg; conditions: in vivo

O=C(O)c1cc(C(F)(F)F)c2cc(N3CCC4(C=C(c5c(-c6c(Cl)cncc6Cl)noc5C5CC5)C4)CC3)ccc2n1
IC50 [1]: > 40 µM | IC50 [2]: > 40 µM | Cmax [3]: 1030 nM
